This passage reports GI50 and TGI results from PubChem BioAssay (NCI).

As usually defined, the GI50 is the concentration at which growth is held to half of that of the control. One may read the TGI as the concentration at which net growth stops. Lower therefore signals more potent growth arrest.

Among the test systems are CAKI-1 renal; EKVX NSCLC; K-562 leukemia; KM12 colon; MDA-MB-231 breast; NCI/ADR-RES ovarian; PC-3 prostate; SF-295 CNS; SK-OV-3 ovarian; UO-31 renal.
Assay in all cases: DTP human tumour cell line panel, 48 h

Each structure is given as a SMILES string.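 Tested at 5 concentrations; 48 h exposure; 96-well plates; endpoints linearly interpolated, else capped at highest concentration. GI50: concentration for 50% inhibition of growth. TGI marks complete inhibition of growth.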

Consider `COc1cc(/C=C/C(=O)c2cccc(-n3cc(-c4ccc(Cl)cc4)[nH]c3=O)c2)ccc1O`, for which the GI50 in the experiment with CAKI-1 renal is 5.02 µM; in the experiment on EKVX NSCLC it was 6.6 µM; in the experiment on K-562 leukemia, 2.36 µM; in the experiment on KM12 colon, 1.6 µM; in the experiment with MDA-MB-231 breast it was 3.46 µM; with NCI/ADR-RES ovarian it was 2.78 µM. In addition, the GI50 in the experiment with PC-3 prostate was 1.95 µM; with SF-295 CNS it was 8.08 µM; with SK-OV-3 ovarian it was 4.78 µM; in the experiment on UO-31 renal it was 1.26 µM. Also, the concentration for total growth inhibition (TGI) is 44.9 µM with CAKI-1 renal; above 95.2 µM in the experiment with EKVX NSCLC; above 26.4 µM in the experiment on K-562 leukemia; 3.42 µM with KM12 colon; above 39.1 µM with MDA-MB-231 breast; above 30.5 µM in the experiment on NCI/ADR-RES ovarian. In addition, the concentration for total growth inhibition (TGI) in the experiment with PC-3 prostate is 6.97 µM; in the experiment on SF-295 CNS it was 31.8 µM; in the experiment with SK-OV-3 ovarian, above 30.2 µM; in the experiment with UO-31 renal, above 37 µM.

For `O=C(CNS(=O)(=O)Cc1ccccc1)NNc1ccccc1`, the total growth inhibition concentration (TGI) in the experiment with CAKI-1 renal, in the experiment with EKVX NSCLC, in the experiment with K-562 leukemia, in the experiment on KM12 colon, in the experiment with MDA-MB-231 breast and in the experiment with NCI/ADR-RES ovarian was above 100 µM in each case. Moreover, the TGI with PC-3 prostate, in the experiment with SF-295 CNS, in the experiment on SK-OV-3 ovarian and in the experiment with UO-31 renal was above 100 µM in each case.

Regarding `COc1ccc(/C(=C\C=C(C#N)C#N)Sc2nc3ccccc3s2)cc1`, the GI50 in the experiment on CAKI-1 renal was 15.8 µM; in the experiment with EKVX NSCLC, 10.5 µM; with K-562 leukemia, 1.58 µM; in the experiment with KM12 colon it was 10.6 µM; in the experiment on MDA-MB-231 breast, 6.71 µM; in the experiment on NCI/ADR-RES ovarian, 3.69 µM. The GI50 in the experiment on PC-3 prostate was 7.34 µM; in the experiment with SF-295 CNS, 13.6 µM; in the experiment on SK-OV-3 ovarian, 14.3 µM; in the experiment on UO-31 renal, 15.6 µM. Also, the TGI with CAKI-1 renal is above 50 µM; with EKVX NSCLC, 22 µM; in the experiment on K-562 leukemia, above 50 µM; in the experiment on KM12 colon, 31.3 µM; with MDA-MB-231 breast, 14.4 µM; with NCI/ADR-RES ovarian, 12.6 µM. In addition, the concentration for total growth inhibition (TGI) in the experiment on PC-3 prostate was 14.3 µM; in the experiment with SF-295 CNS it was 39.9 µM; with SK-OV-3 ovarian it was 29.5 µM; in the experiment on UO-31 renal it was above 50 µM.

Take `CC1(Br)Cc2ccccc2C1=O` (stereo unspecified): the GI50 in the experiment on CAKI-1 renal is 1.75 µM; in the experiment on K-562 leukemia, 0.571 µM. Besides, the TGI in the experiment on CAKI-1 renal was 3.86 µM; in the experiment with EKVX NSCLC, 11.2 µM; in the experiment on KM12 colon, 25.8 µM; in the experiment on MDA-MB-231 breast, 22.9 µM; with NCI/ADR-RES ovarian it was above 100 µM; in the experiment on PC-3 prostate, 22.5 µM. For the same molecule, the figures for the concentration for total growth inhibition (TGI) in the experiment on SF-295 CNS, in the experiment on SK-OV-3 ovarian and in the experiment with UO-31 renal were 36.2 µM, 65.9 µM and 20.2 µM, respectively.

`CC12CCC3c4ccc(O)cc4CCC3C1C/C(=N\O)C2O` (stereo unspecified): the TGI with CAKI-1 renal, in the experiment with EKVX NSCLC, with K-562 leukemia, in the experiment on KM12 colon, in the experiment with MDA-MB-231 breast and in the experiment with NCI/ADR-RES ovarian was above 100 µM each time. The TGI in the experiment on PC-3 prostate, with SF-295 CNS, in the experiment with SK-OV-3 ovarian and in the experiment on UO-31 renal was above 100 µM each time.

`CS(=O)(=O)Nc1cc(-c2ccc3ncnc(Nc4c(Cl)ccc5c4OCO5)c3c2)cnc1Cl`: the GI50 was 0.053 µM with CAKI-1 renal; 0.116 µM with EKVX NSCLC; 0.484 µM in the experiment on K-562 leukemia; 0.465 µM with KM12 colon; 0.246 µM with MDA-MB-231 breast; 0.477 µM with NCI/ADR-RES ovarian. Further, the concentration for 50% growth inhibition (GI50) with PC-3 prostate is 0.178 µM; with SF-295 CNS, 0.171 µM; with SK-OV-3 ovarian it was 0.131 µM; in the experiment on UO-31 renal, 0.0403 µM. For the same molecule, the TGI in the experiment on CAKI-1 renal is 0.869 µM; with EKVX NSCLC, 0.824 µM; in the experiment with K-562 leukemia, above 48.4 µM; with KM12 colon, 1.87 µM; in the experiment on MDA-MB-231 breast it was 2.35 µM; in the experiment with NCI/ADR-RES ovarian it was 4.19 µM. For the same molecule, the total growth inhibition concentration (TGI) in the experiment with PC-3 prostate is 1.77 µM; in the experiment on SF-295 CNS, 1.1 µM; with SK-OV-3 ovarian, 0.759 µM; with UO-31 renal it was 0.938 µM.

On to `CN1CC[C@@H](c2c(O)cc(O)c3c(=O)cc(-c4ccc(C(F)(F)F)cc4Cl)oc23)[C@@H]1CO`, for which the GI50 with CAKI-1 renal was 14.7 µM; in the experiment with EKVX NSCLC, 13.9 µM; in the experiment with K-562 leukemia it was 29.8 µM; in the experiment with KM12 colon, 13.7 µM; with MDA-MB-231 breast, 12.7 µM; in the experiment with NCI/ADR-RES ovarian it was 19.1 µM. For the same molecule, the GI50 was 19 µM with PC-3 prostate, 16.7 µM with SF-295 CNS, 26.6 µM in the experiment with SK-OV-3 ovarian and 11 µM in the experiment on UO-31 renal. Besides, the total growth inhibition concentration (TGI) in the experiment on CAKI-1 renal amounted to 39.8 µM; with EKVX NSCLC it was 37.5 µM; in the experiment with K-562 leukemia, 85.6 µM; in the experiment with KM12 colon, 30.4 µM; in the experiment on MDA-MB-231 breast, 34.3 µM; with NCI/ADR-RES ovarian, 51.6 µM. Besides, the TGI in the experiment with PC-3 prostate is 44.5 µM; in the experiment on SF-295 CNS it was 36.4 µM; in the experiment on SK-OV-3 ovarian, 70 µM; in the experiment on UO-31 renal it was 37.8 µM.

Regarding `CCOC(=O)/C=C/c1ccc(C#Cc2ccccc2)cc1`, the GI50 is above 100 µM in the experiment with CAKI-1 renal; 0.0608 µM in the experiment with EKVX NSCLC; 72 µM with K-562 leukemia; above 100 µM in the experiment with KM12 colon; above 100 µM in the experiment with MDA-MB-231 breast; above 100 µM with NCI/ADR-RES ovarian. Further, the GI50 in the experiment with PC-3 prostate was above 100 µM; in the experiment with SF-295 CNS, 55.1 µM; in the experiment with SK-OV-3 ovarian, above 100 µM; in the experiment on UO-31 renal, 38.4 µM. In addition, the total growth inhibition concentration (TGI) was above 100 µM in the experiment with CAKI-1 renal; 43.1 µM with EKVX NSCLC; above 100 µM in the experiment with K-562 leukemia; above 100 µM with KM12 colon; above 100 µM in the experiment on MDA-MB-231 breast; above 100 µM in the experiment with NCI/ADR-RES ovarian. Moreover, the total growth inhibition concentration (TGI) in the experiment with PC-3 prostate, with SF-295 CNS, in the experiment on SK-OV-3 ovarian and in the experiment with UO-31 renal was above 100 µM throughout.

`C[C@H](Nc1cc(Cl)nc2c1cnn2[C@@H]1O[C@H](COP(=O)(O)CP(=O)(O)O)[C@@H](O)[C@H]1O)c1ccccc1F`: the GI50 in the experiment with CAKI-1 renal, in the experiment on EKVX NSCLC, in the experiment on K-562 leukemia, in the experiment with KM12 colon, in the experiment on MDA-MB-231 breast and in the experiment on NCI/ADR-RES ovarian was above 100 µM each time. For the same molecule, the GI50 in the experiment with PC-3 prostate, in the experiment with SF-295 CNS, in the experiment with SK-OV-3 ovarian and in the experiment on UO-31 renal was above 100 µM each time. Besides, the TGI in the experiment with CAKI-1 renal, in the experiment with EKVX NSCLC, in the experiment on K-562 leukemia, in the experiment with KM12 colon, in the experiment on MDA-MB-231 breast and in the experiment on NCI/ADR-RES ovarian was above 100 µM in each case. The total growth inhibition concentration (TGI) in the experiment with PC-3 prostate, in the experiment with SF-295 CNS, in the experiment with SK-OV-3 ovarian and with UO-31 renal was above 100 µM in each case.
